Source: PubChem BioAssay AID1963868 (Molecular Pharmacology Branch, DTP, NCI, 2024)

System: KRAS PDC tumor spheroids (HUVEC+MSC), viability
Assay: Anticancer human tumor 254851-301-R-J1-PDC patient-derived colon carcinoma cell line growth inhibition [KRAS2]
Details: for IC50: curve of first compound; for viability, T/C: stronger effect = lower value
From the text: Multicellular complex tumor spheroid response to RAS pathway inhibitors in combination with a targeted agents in patient-derived cell lines with oncogenic KRAS variants from multiple cancer types
A high-throughput screen of multi-cell type tumor spheroids was designed to identify active combinations of targeted small molecules and KRAS pathway inhibitors. Complex spheroids include a stromal component modeled by human endothelial cells (HUVEC) and fibroblasts modeled by human mesenchymal stem cells (MSCs). The concentration ranges selected for each drug and investigational agent were based upon clinically achievable concentrations if the clinical Cmax of the agent was known.
Compounds. The drugs and investigational agents: BI-3406 (NSC825286), BAY-293 (NSC824723), batoprotafib (TNO155; NSC825523), sotorasib (AMG 510; NSC818433), MRTX1257 (NSC819558), elimusertib (BAY 1895344; NSC800525), molibresib (GSK525762; NSC774829), temuterkib (LY3214996; NSC803410), venetoclax (NSC766270), alisertib (NSC759677), olaparib (NSC753686), talazoparib (NSC767125), erdafitinib (NSC781556), ipatasertib (NSC767898), cabozantinib (NSC761068), nintedanib (NSC756659), abemaciclib (NSC768073), docetaxel (NSC628503), trametinib (NSC758246), and sapanisertib (NSC764658) were obtained from the National Cancer Institute (NCI) Developmental Therapeutics Program Chemical Repository. The FDA-approved anticancer drug set is available from the Developmental Therapeutics Program. […] The stock solutions were prepared in dimethyl sulfoxide (DMSO, Sigma-Aldrich, St. Louis, MO, cat. D2650) at 800-fold the tested concentration and stored at -70 degrees C prior to their use. All drugs and investigational agents were tested over a range starting from a high concentration at or near the clinical Cmax and decreasing in half-log increments. If the clinical Cmax for an agent had not been determined, the highest concentration tested was 10 microM.
Cell Culture. All cells were maintained in an incubator at 37 degrees C and 5% CO2 with 95% humidity. The PDC lines were cultured according to standard operating procedures established by the NCI PDMR (https://pdmr.cancer.gov/sops/default.htm). Briefly, all PDCs were thawed and cultured in Matrigel-coated flasks prepared with a working solution of 1X Ham's F-12 nutrient mix, without supplementation (Invitrogen, Waltham, MA, cat. 11765054), 100 U/mL penicillin-streptomycin (Invitrogen, cat. 15140122), and 2.5% Matrigel (Corning Inc., Corning, NY, cat. 354248) for the first three passages. All PDCs were cultured in complete DMEM/F-12 media containing advanced DMEM/F-12 (Invitrogen, cat. 12634028), 4.9% defined fetal bovine serum, heat inactivated (HyClone Laboratories Inc., Logan, UT, cat. SH30070.03HI), 389 ng/mL hydrocortisone (Sigma-Aldrich, cat. H4001), 9.7 ng/mL human EGF recombinant protein (Invitrogen, cat. PHG0313), 23.4 microg/mL adenine (Sigma-Aldrich, cat. A2786), 97.3 U/mL penicillin-streptomycin (Invitrogen, cat. 15140122), 1.9 mM L-glutamine (Invitrogen, cat. 25030081), and 9.7 microM Y-27632 dihydrochloride (Tocris Bioscience, Bristol, United Kingdom, cat. 1254). The PDCs were cultured in complete DMEM/F12 media without 9.7 microM Y-27632 dihydrochloride for at least two passages prior to the screen. The established cell line HOP-62 was cultured in RPMI 1640 medium, HEPES (Invitrogen, cat. 22400105) with 10% defined fetal bovine serum (HyClone Laboratories Inc., cat. SH30070.03) and 2 mM L-glutamine (Invitrogen, cat. 25030081). The pooled donor HUVEC were cultured in endothelial cell growth medium 2 (PromoCell, Heidelberg, Germany, cat. C-22011) and the hMSC were cultured in mesenchymal stem cell growth medium 2 (PromoCell, cat. C-28009). For all experiments, HUVEC and hMSC were used at passages </=5, while the malignant cell lines were used at passages </=15. […]

[1] = second compound 0.1 µM, first compound 0.0316 µM
[2] = second compound 0.1 µM, first compound 0.1 µM
[3] = second compound 0.1 µM, first compound 0.316 µM
[4] = second compound 0.1 µM, first compound 1 µM
[5] = second compound 0.1 µM, first compound 3.16 µM
[6] = second compound 0.1 µM, first compound 10 µM
[7] = second compound 0.316 µM, first compound 0.0316 µM
[8] = second compound 0.316 µM, first compound 0.1 µM
[9] = second compound 0.316 µM, first compound 0.316 µM
[10] = second compound 0.316 µM, first compound 1 µM
[11] = second compound 0.316 µM, first compound 3.16 µM
[12] = second compound 0.316 µM, first compound 10 µM
[13] = second compound 1 µM, first compound 0.0316 µM
[14] = second compound 1 µM, first compound 0.1 µM
[15] = second compound 1 µM, first compound 0.316 µM
[16] = second compound 1 µM, first compound 1 µM
[17] = second compound 1 µM, first compound 3.16 µM
[18] = second compound 1 µM, first compound 10 µM
[19] = second compound 3.16 µM, first compound 0.0316 µM
[20] = second compound 3.16 µM, first compound 0.1 µM
[21] = second compound 3.16 µM, first compound 0.316 µM
[22] = second compound 3.16 µM, first compound 1 µM
[23] = second compound 3.16 µM, first compound 3.16 µM
[24] = second compound 3.16 µM, first compound 10 µM
[25] = second compound 10 µM, first compound 0.0316 µM
[26] = second compound 10 µM, first compound 0.1 µM
[27] = second compound 10 µM, first compound 0.316 µM
[28] = second compound 10 µM, first compound 1 µM
[29] = second compound 10 µM, first compound 3.16 µM
[30] = second compound 10 µM, first compound 10 µM
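Also: spheroids exposed to compounds for seven days before readout.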
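For viability, T/C in this document: 100% = DMSO vehicle control luminescence of the spheroids.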

COc1cc2nccc(Oc3ccc(NC(=O)C4(C(=O)Nc5ccc(F)cc5)CC4)cc3)c2cc1OC + CNCc1ccccc1-c1csc(C(C)Nc2nc(C)nc3cc(OC)c(OC)cc23)c1
IC50 (second compound 0.1 µM): 9.9 µM
IC50 (second compound 0.316 µM): 7.28 µM
IC50 (second compound 1 µM): 6.42 µM
IC50 (second compound 3.16 µM): 1.63 µM
IC50 (second compound 10 µM): < 0.0316 µM
viability, T/C [1]: 102%
viability, T/C [2]: 104%
viability, T/C [3]: 97.2%
viability, T/C [4]: 103%
viability, T/C [5]: 101%
viability, T/C [6]: 49.6%
viability, T/C [7]: 112%
viability, T/C [8]: 91.5%
viability, T/C [9]: 96.3%
viability, T/C [10]: 101%
viability, T/C [11]: 85.5%
viability, T/C [12]: 36.3%
viability, T/C [13]: 107%
viability, T/C [14]: 102%
viability, T/C [15]: 100%
viability, T/C [16]: 99.7%
viability, T/C [17]: 82.7%
viability, T/C [18]: 29.3%
viability, T/C [19]: 82%
viability, T/C [20]: 78%
viability, T/C [21]: 72.4%
viability, T/C [22]: 64.4%
viability, T/C [23]: 32.5%
viability, T/C [24]: 0.27%
viability, T/C [25]: 0.19%
viability, T/C [26]: 0.17%
viability, T/C [27]: 0.16%
viability, T/C [28]: 0.18%
viability, T/C [29]: 0.13%
viability, T/C [30]: 0.17%

Cn1ncnc1[C@H]1c2n[nH]c(=O)c3cc(F)cc(c23)N[C@@H]1c1ccc(F)cc1 + CC1OCC2(CCN(c3cnc(Sc4ccnc(N)c4Cl)c(N)n3)CC2)C1N
IC50 (second compound 0.1 µM): > 0.1 µM
IC50 (second compound 0.316 µM): > 0.1 µM
IC50 (second compound 1 µM): > 0.1 µM
IC50 (second compound 3.16 µM): > 0.1 µM
IC50 (second compound 10 µM): > 0.1 µM
viability, T/C (second compound 0.1 µM, first compound 0.000316 µM): 98%
viability, T/C (second compound 0.1 µM, first compound 0.001 µM): 102%
viability, T/C (second compound 0.1 µM, first compound 0.00316 µM): 100%
viability, T/C (second compound 0.1 µM, first compound 0.01 µM): 98%
viability, T/C [1]: 101%
viability, T/C [2]: 98.9%
viability, T/C (second compound 0.316 µM, first compound 0.000316 µM): 89.5%
viability, T/C (second compound 0.316 µM, first compound 0.001 µM): 93.8%
viability, T/C (second compound 0.316 µM, first compound 0.00316 µM): 79%
viability, T/C (second compound 0.316 µM, first compound 0.01 µM): 78.8%
viability, T/C [7]: 78.3%
viability, T/C [8]: 90.6%
viability, T/C (second compound 1 µM, first compound 0.000316 µM): 82.4%
viability, T/C (second compound 1 µM, first compound 0.001 µM): 85.2%
viability, T/C (second compound 1 µM, first compound 0.00316 µM): 75.1%
viability, T/C (second compound 1 µM, first compound 0.01 µM): 83.6%
viability, T/C [13]: 83.9%
viability, T/C [14]: 80.9%
viability, T/C (second compound 3.16 µM, first compound 0.000316 µM): 75.1%
viability, T/C (second compound 3.16 µM, first compound 0.001 µM): 77.4%
viability, T/C (second compound 3.16 µM, first compound 0.00316 µM): 70.5%
viability, T/C (second compound 3.16 µM, first compound 0.01 µM): 74.5%
viability, T/C [19]: 76.9%
viability, T/C [20]: 74.1%
viability, T/C (second compound 10 µM, first compound 0.000316 µM): 68.5%
viability, T/C (second compound 10 µM, first compound 0.001 µM): 67.7%
viability, T/C (second compound 10 µM, first compound 0.00316 µM): 63.7%
viability, T/C (second compound 10 µM, first compound 0.01 µM): 57.1%
viability, T/C [25]: 67.1%
viability, T/C [26]: 57.2%

COC(=O)c1ccc2c(C(=Nc3ccc(N(C)C(=O)CN4CCN(C)CC4)cc3)c3ccccc3)c(O)[nH]c2c1 + COc1cc2nc(C)nc(NC(C)c3cc(N)cc(C(F)(F)F)c3)c2cc1OC1CCOC1
IC50 (second compound 0.1 µM): > 10 µM
IC50 (second compound 0.316 µM): > 10 µM
IC50 (second compound 1 µM): > 10 µM
IC50 (second compound 3.16 µM): 3.85 µM
IC50 (second compound 10 µM): 1.24 µM
viability, T/C [1]: 90.9%
viability, T/C [2]: 102%
viability, T/C [3]: 89%
viability, T/C [4]: 85.3%
viability, T/C [5]: 98.7%
viability, T/C [6]: 87%
viability, T/C [7]: 88%
viability, T/C [8]: 95%
viability, T/C [9]: 92.5%
viability, T/C [10]: 86.1%
viability, T/C [11]: 90.2%
viability, T/C [12]: 90.4%
viability, T/C [13]: 86.9%
viability, T/C [14]: 90.5%
viability, T/C [15]: 83.3%
viability, T/C [16]: 77.7%
viability, T/C [17]: 80.1%
viability, T/C [18]: 73%
viability, T/C [19]: 93.2%
viability, T/C [20]: 85.9%
viability, T/C [21]: 88.9%
viability, T/C [22]: 80.2%
viability, T/C [23]: 59.2%
viability, T/C [24]: 6.26%
viability, T/C [25]: 82.7%
viability, T/C [26]: 87%
viability, T/C [27]: 77.8%
viability, T/C [28]: 61.3%
viability, T/C [29]: 1.22%
viability, T/C [30]: 0.29%
